Literature values, collected in patent publication US20230225968A1, “PROCESS FOR PRODUCING VISIBLY CLEAR AQUEOUS CONSUMABLE PRODUCTS” (CHAVAN, Neha, priority 2020, published 2023).

Details: oil-based delivery systems; humans

C=C(C)[C@@H]1CCC(C)=C[C@H]1c1c(O)cc(CCCCC)cc1O [CBD, cannabidiol]
total CBD absorbed: 4%
